Tests used:
[1] = system: Botryotinia fuckeliana (Botrytis cinerea); test: Botryotinia fuckeliana (Botrytis cinerea) / liquid culture (gray mould); assay type: cell-based; settings: Vogels broth, 24° C., 3-4 days after application, compared to untreated checks, read-out: disease control (inhibition of growth, photometric)
Description: (§1) Botryotinia fuckeliana (Botrytis cinerea)/Liquid Culture (Gray Mould) Conidia of the fungus from cryogenic storage are directly mixed into nutrient broth (Vogels broth). After placing a (DMSO) solution of test compound into a microtiter plate (96-well format), the nutrient broth containing the fungal spores is added. The test plates are incubated at 24° C. and the inhibition of growth is determined photometrically 3-4 days after application.

[2] = system: Puccinia Recondite f. Sp. Tritici; test: Puccinia recondita f. sp. tritici / wheat / leaf disc preventative (brown rust); assay type: in vivo; settings: foliar, wheat leaf segments cv. Kanzler, inoculated 1 day after application, assessed 7-9 days after application, compared to untreated, read-out: disease control
Description: Puccinia Recondite f. Sp. Tritici/Wheat/Leaf Disc Preventative (Brown Rust) Wheat leaf segments cv. Kanzler are placed on agar in multiwell plates (24-well format) and sprayed with the formulated test compound diluted in water. The leaf disks are inoculated with a spore suspension of the fungus 1 day after application. The inoculated leaf segments are incubated at 19° C. and 75% rh under a light regime of 12 h light/12 h darkness in a climate cabinet and the activity of a compound is assessed as percent disease control compared to untreated when an appropriate level of disease damage appears in untreated check leaf segments (7-9 days after application).

[3] = system: Mycosphaerella arachidis (Cercospora arachidicola); test: Mycosphaerella arachidis (Cercospora arachidicola) / liquid culture (early leaf spot); assay type: cell-based; settings: PDB potato dextrose broth, 24° C., 4-5 days after application, compared to untreated checks, read-out: disease control (inhibition of growth, photometric)
Description: as §1, with “Mycosphaerella arachidis (Cercospora arachidicola)/Liquid” for “Botryotinia fuckeliana (Botrytis cinerea)/Liquid”, “(Early Leaf Spot)” for “(Gray Mould)”, “(PDB potato dextrose” for “(Vogels”, “4-5” for “3-4”

[4] = system: Mycosphaerella Graminicola (Septoria tritici); test: Mycosphaerella graminicola (Septoria tritici) / liquid culture (Septoria blotch); assay type: cell-based; settings: Zymoseptoria tritici, PDB potato dextrose broth, 24° C., 4 to 5 days after application, compared to untreated checks, read-out: disease control (inhibition of growth, photometric)
Description: as §1, with “Mycosphaerella Graminicola (Septoria tritici)/Liquid” for “Botryotinia fuckeliana (Botrytis cinerea)/Liquid”, “(Septoria Blotch)” for “(Gray Mould)”, “(PDB potato dextrose” for “(Vogels”, “4 to 5” for “3-4”

[5] = system: Monographella nivalis (Microdochium nivale); test: Monographella nivalis (Microdochium nivale) / liquid culture (foot rot cereals); assay type: cell-based; settings: PDB potato dextrose broth, 24° C., 4-5 days after application, compared to untreated checks, read-out: disease control (inhibition of growth, photometric)
Description: as §1, with “Monographella nivalis (Microdochium nivale)/Liquid” for “Botryotinia fuckeliana (Botrytis cinerea)/Liquid”, “(Foot Rot Cereals)” for “(Gray Mould)”, “(PDB potato dextrose” for “(Vogels”, “4-5” for “3-4”

[6] = system: Phaeosphaeria nodorum (Septoria nodorum); test: Phaeosphaeria nodorum (Septoria nodorum) / wheat / leaf disc preventative (glume blotch); assay type: in vivo; settings: Parastagonospora nodorum, foliar, 120 h, wheat leaf segments cv. Kanzler, inoculated 2 days after application, assessed 5-7 days after application, compared to untreated, read-out: disease control
Description: Phaeosphaeria nodorum (Septoria nodorum)/Wheat/Leaf Disc Preventative (Glume Blotch) Wheat leaf segments cv. Kanzler are placed on agar in a multiwell plate (24-well format) and sprayed with the formulated test compound diluted in water. The leaf disks are inoculated with a spore suspension of the fungus 2 days after application. The inoculated test leaf disks are incubated at 20° C. and 75% rh under a light regime of 12 h light/12 h darkness in a climate cabinet and the activity of a compound is assessed as percent disease control compared to untreated when an appropriate level of disease damage appears in untreated check leaf disks (5-7 days after application).

[7] = system: Magnaporthe grisea (Pyricularia oryzae); test: whole plant or invertebrate; assay type: in vivo; settings: foliar, read-out: disease control
[8] = system: Glomerella Lagenarium (Colletotrichum lagenarium); test: Glomerella lagenarium (Colletotrichum lagenarium) / liquid culture (anthracnose); assay type: cell-based; settings: Colletotrichum orbiculare, PDB potato dextrose broth, 24° C., 3 to 4 days after application, compared to untreated checks, read-out: disease control (inhibition of growth, photometric)
Description: as §1, with “Glomerella Lagenarium (Colletotrichum lagenarium)/Liquid” for “Botryotinia fuckeliana (Botrytis cinerea)/Liquid”, “(Anthracnose)” for “(Gray Mould)”, “(PDB potato dextrose” for “(Vogels”, “measured” for “determined”, “3 to 4” for “3-4”

COc1ccnc(C(=O)N[C@@H](C)C(=O)ON(C)C(C)(c2ccc(Cl)cc2)c2ccc(Cl)cc2)c1OCOC(=O)C(C)C [I.u.26, [2-[[(1S)-2-[1,1-bis(4-chlorophenyl)ethyl-methyl-amino]oxy-1-methyl-2-oxo-ethyl]carbamoyl]-4-methoxy-3-pyridyl] oxymethyl 2-methylpropanoate]
≥ 80%: inhibition at 200 ppm [1] | pest or weed control at 200 ppm [2] | inhibition at 200 ppm [3] | inhibition at 200 ppm [4] | inhibition at 200 ppm [5]

CCC(c1ccccc1)(c1ccccc1)N(C)OC(=O)[C@H](C)NC(=O)c1nccc(OC)c1O [I.m.03, [1,1-diphenylpropyl (methyl)amino] (2S)-2-[(3-hydroxy-4-methoxy-pyridine-2-carbonyl)amino]propanoate]
≥ 80%: inhibition at 200 ppm [1] | inhibition at 200 ppm [3] | inhibition at 200 ppm [4] | inhibition at 200 ppm [5] | pest or weed control at 200 ppm [6]

COc1ccnc(C(=O)N[C@@H](C)C(=O)ON(C)C(C)(c2ccc(F)cc2)c2ccc(F)cc2)c1O [I.s.02, [1,1-bis(4-fluorophenyl)ethyl-methyl-amino] (2S)-2-[(3-hydroxy-4-methoxy-pyridine-2-carbonyl)amino] propanoate]
≥ 80%: inhibition at 200 ppm [1] | inhibition at 200 ppm [3] | inhibition at 200 ppm [4] | pest or weed control at 200 ppm [6] | pest or weed control at 200 ppm [7] | inhibition at 200 ppm [8]

COc1ccc(C(c2ccc(OC)cc2)N(C)OC(=O)[C@H](C)NC(=O)c2nccc(OC)c2O)cc1 [I.ab.01, [bis(4-methoxy phenyl)methyl-methyl-amino] (2S)-2-[(3-hydroxy-4-methoxy-pyridine-2-carbonyl)amino]propanoate]
≥ 80%: inhibition at 200 ppm [1] | pest or weed control at 200 ppm [2] | inhibition at 200 ppm [3] | inhibition at 200 ppm [4] | pest or weed control at 200 ppm [6] | inhibition at 200 ppm [8]

COc1ccnc(C(=O)N[C@@H](C)C(=O)ON(C)C(C)(c2ccc(Cl)cc2)c2ccc(Cl)cc2)c1O [I.u.02, [1,1-bis(4-chlorophenyl)ethyl-methyl-amino] (2S)-2-[(3-hydroxy-4-methoxy-pyridine-2-carbonyl)amino]propanoate]
≥ 80%: inhibition at 200 ppm [1] | inhibition at 200 ppm [3] | inhibition at 200 ppm [4] | inhibition at 200 ppm [5] | pest or weed control at 200 ppm [6] | inhibition at 200 ppm [8]

COc1ccnc(C(=O)N[C@@H](C)C(=O)ON(C)C(c2ccc(C)cc2)c2ccc(C)cc2)c1O [I.v.01, [bis-p-tolylmethyl (methyl)amino] (2S)-2-[(3-hydroxy-4-methoxy-pyridine-2-carbonyl)amino]propanoate]
≥ 80%: inhibition at 200 ppm [1] | pest or weed control at 200 ppm [2] | inhibition at 200 ppm [3] | inhibition at 200 ppm [4] | inhibition at 200 ppm [5] | inhibition at 200 ppm [8]

COc1ccnc(C(=O)N[C@@H](C)C(=O)ON(C)C(c2ccc(F)cc2)c2ccc(Cl)cc2)c1O (stereo partly drawn) [I.t.01, [[(4-chlorophenyl)-(4-fluorophenyl)methyl]-methyl-amino] (2S)-2-[(3-hydroxy-4-methoxy-pyridine-2-carbonyl)amino] propanoate]
≥ 80%: inhibition at 200 ppm [1] | pest or weed control at 200 ppm [2] | inhibition at 200 ppm [3] | pest or weed control at 200 ppm [6] | inhibition at 200 ppm [8]

CCOc1ccc(C(c2ccc(OCC)cc2)N(C)OC(=O)[C@H](C)NC(=O)c2nccc(OC)c2O)cc1 [I.ac.01, [bis(4-ethoxy phenyl)methyl-methyl-amino] (2S)-2-[(3-hydroxy-4-methoxy-pyridine-2-carbonyl)amino]propanoate]
≥ 80%: inhibition at 200 ppm [1] | pest or weed control at 200 ppm [2] | inhibition at 200 ppm [3] | inhibition at 200 ppm [4] | inhibition at 200 ppm [5] | pest or weed control at 200 ppm [6] | inhibition at 200 ppm [8]

From patent US11535594B2, “Microbiocidal picolinamide derivatives” (Syngenta Participations AG, priority 2017, dated 2022)
